Holding throughout (format): biochemical
One assay addresses Pim1 kinase (Homo sapiens, UniProt P11309). Briefly: Pim1 ATP depletion assay.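 Also: Luciferase-luciferin luminescence readout of residual ATP after PIM1 transfers phosphate to a peptide substrate, 40 µM ATP added, reaction run to roughly half ATP consumption.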
The target of another assay is Pim2 kinase (Homo sapiens, UniProt Q9P1W9). Briefly: Pim2 ATP depletion assay.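 Also: Luciferase-based luminescent readout of ATP remaining after PIM2 phosphorylates a BAD peptide, final 5 nM enzyme, 4 µM ATP, 10 µM peptide, 2.5% DMSO, run to roughly half ATP consumption.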 Conditions: read-out: PIM2 IC50.
Chain of Pim2 kinase (Q9P1W9 whole entry): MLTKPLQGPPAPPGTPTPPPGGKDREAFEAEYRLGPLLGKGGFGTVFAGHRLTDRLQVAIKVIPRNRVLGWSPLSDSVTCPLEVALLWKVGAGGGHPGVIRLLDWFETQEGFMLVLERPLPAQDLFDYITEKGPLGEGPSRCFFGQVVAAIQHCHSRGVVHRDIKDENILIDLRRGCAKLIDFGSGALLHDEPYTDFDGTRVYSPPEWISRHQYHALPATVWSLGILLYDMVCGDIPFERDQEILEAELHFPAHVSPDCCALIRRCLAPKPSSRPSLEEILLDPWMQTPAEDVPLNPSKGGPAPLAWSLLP
Another assay addresses Pim3 kinase (Homo sapiens, UniProt Q86V86). Nature of the assay: Pim3 ATP depletion assay. Conditions: read-out: PIM3 IC50.
[1] abbreviates: Pim1 ATP depletion assay, read-out: PIM1 IC50.

Structures are written as SMILES. Read-outs that look alike come from different tables or passages of the source.

Chain of Pim1 kinase (P11309 whole entry): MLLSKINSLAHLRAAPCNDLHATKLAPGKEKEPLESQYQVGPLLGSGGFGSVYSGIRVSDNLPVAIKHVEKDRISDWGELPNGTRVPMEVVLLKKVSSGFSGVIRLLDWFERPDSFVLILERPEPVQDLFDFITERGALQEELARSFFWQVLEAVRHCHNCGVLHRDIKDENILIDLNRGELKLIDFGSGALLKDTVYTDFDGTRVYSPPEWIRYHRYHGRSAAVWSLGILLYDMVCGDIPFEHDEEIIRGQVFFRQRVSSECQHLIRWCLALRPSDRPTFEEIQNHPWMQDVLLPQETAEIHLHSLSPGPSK

In general, IC50 refers to the point on the concentration scale where inhibition reaches its midpoint. As for `CC(C)NC(=O)c1ccc(F)c(-c2ccc(N)c(C(=O)Nc3cnccc3N3C[C@@H](N)C[C@@H](O)C3)n2)c1` [Example 677, 3-Amino-6-(2-fluoro-5-isopropylcarbamoyl-phenyl)-pyridine-2-carboxylic acid (3-amino-5-hydroxy-3,4,5,6-tetra-hydro-2H-[1,4′]bipyridinyl-3′-yl)-amide], the IC50 at Pim1 kinase (setting [1]), on Pim2 kinase and on Pim3 kinase was below 1 µM throughout.

With `Nc1ccc(-c2ccccc2F)nc1C(=O)Nc1cnccc1N1C[C@@H](N)C[C@@H](O)C1` [Example 678, 3-Amino-6-(2-fluoro-phenyl)-pyridine-2-carboxylic acid (5-amino-3-hydroxy-3,4,5,6-tetra-hydro-2H-[1,4′]bipyridinyl-3′-yl)-amide], the IC50 at Pim1 kinase (setting [1]), on Pim2 kinase and at Pim3 kinase was below 1 µM throughout.

As to `Nc1ccc(-c2c(F)cccc2F)nc1C(=O)Nc1cnccc1N1CC[C@H](O)[C@@H](N)C1` [Example 680, 3-Amino-6-(2,6-difluoro-phenyl)-pyridine-2-carboxylic acid (3-amino-4-hydroxy-3,4,5,6-tetrahydro-2H-[1,4′]bi-pyridinyl-3′-yl)-amide], the IC50 on Pim1 kinase, on Pim2 kinase and at Pim3 kinase was below 1 µM each time.

On to `N[C@@H]1CN(c2ccncc2NC(=O)c2ccc(F)c(-c3ccccc3)n2)CC[C@H]1O` [Example 681, 5-Fluoro-6-phenyl-pyridine-2-carboxylic acid (3-amino-4-hydroxy-3,4,5,6-tetrahydro-2H-[1,4′]bipyridinyl-3′-yl)-amide], for which the IC50 at Pim1 kinase (setting [1]), at Pim2 kinase and at Pim3 kinase was below 1 µM in each case.

As for `N[C@@H]1CN(c2ccncc2NC(=O)c2ccc(F)c(-c3ccccc3F)n2)CC[C@H]1O` [Example 682, 5-Fluoro-6-(2-fluoro-phenyl)-pyridine-2-carboxylic acid (3-amino-4-hydroxy-3,4,5,6-tetra-hydro-2H-[1,4′]bipyridinyl-3′-yl)-amide], the IC50 at Pim1 kinase (setting [1]), at Pim2 kinase and on Pim3 kinase was below 1 µM each time.

On to `N[C@H]1C[C@@H](O)CN(c2ccncc2NC(=O)c2ccc(F)c(-c3ccccc3F)n2)C1` [Example 684, 5-Fluoro-6-(2-fluoro-phenyl)-pyridine-2-carboxylic acid (5-amino-3-hydroxy-3,4,5,6-tetra-hydro-2H-[1,4′]bipyridinyl-3′-yl)-amide], for which the IC50 at Pim1 kinase (setting [1]), on Pim2 kinase and on Pim3 kinase was below 1 µM each time.

As to `N#Cc1ccc(-c2ccc(N)c(C(=O)Nc3cnccc3N3CCC[C@H](N)C3)n2)c(F)c1` [Example 686, 3-Amino-6-(4-cyano-2-fluoro-phenyl)-pyridine-2-carboxylic acid (3-amino-3,4,5,6-tetra-hydro-2H-[1,4′]bipyridinyl-3′-yl)-amide], the IC50 at Pim1 kinase (setting [1]), on Pim2 kinase and at Pim3 kinase was below 1 µM each time.

Take `CC(C)/C=C\c1ccc(F)c(-c2ccc(N)c(C(=O)Nc3cnccc3N3CCC[C@H](N)C3)n2)c1` [Example 687, 3-Amino-6-[2-fluoro-5-(3-methyl-but-1-enyl)-phenyl]-pyridine-2-carboxylic acid (3-amino-3,4,5,6-tetrahydro-2H-[1,4′]bipyridinyl-3′-yl)-amide]: the IC50 on Pim1 kinase (setting [1]), at Pim2 kinase and at Pim3 kinase was below 1 µM in each case.

`Nc1ccc(-c2cncs2)nc1C(=O)Nc1cnccc1N1CCC[C@H](N)C1` [Example 688, 3-Amino-6-thiazol-5-yl-pyridine-2-carboxylic acid (3-amino-3,4,5,6-tetrahydro-2H-[1,4′]bipyridinyl-3′-yl)-amide]: the IC50 at Pim1 kinase (setting [1]), at Pim2 kinase and on Pim3 kinase was below 1 µM each time.

For `CC(C)N(C)C(=O)c1ccc(F)c(-c2ccc(N)c(C(=O)Nc3cnccc3N3CCC[C@H](N)C3)n2)c1F` [Example 689, 3-Amino-6-[2,6-difluoro-3-(isopropyl-methyl-carbamoyl)-phenyl]-pyridine-2-carboxylic acid (3-amino-3,4,5,6-tetra-hydro-2H-[1,4′]bipyridinyl-3′-yl)-amide], the IC50 at Pim1 kinase (setting [1]), at Pim2 kinase and on Pim3 kinase was below 1 µM throughout.

Consider `Nc1ccc(-c2ncccc2F)nc1C(=O)Nc1cnccc1N1CCC[C@H](O)C1` [Example 690, 5-Amino-3′-fluoro-[2,2′]bi-pyridinyl-6-carboxylic acid (3-hydroxy-3,4,5,6-tetrahydro-2H-[1,4′]bipyridinyl-3′-yl)-amide], for which the IC50 at Pim1 kinase (setting [1]), on Pim2 kinase and at Pim3 kinase was below 1 µM each time.

Take `NC(=O)c1ccc(-c2ccc(N)c(C(=O)Nc3cnccc3N3CCC[C@H](N)C3)n2)nc1` [Example 691, 5′-Amino[2,2′]bipyridinyl-5,6′-dicarboxylic acid 5-amide 6′-[(3-amino-3,4,5,6-tetrahydro-2H-[1,4′]bipyridinyl-3′-yl)-amide]]: the IC50 on Pim1 kinase (setting [1]), on Pim2 kinase and at Pim3 kinase was below 1 µM each time.

Consider `Nc1ccc(-c2cncc3ccccc23)nc1C(=O)Nc1cnccc1N1CCC[C@H](N)C1` [Example 692, 3-Amino-6-isoquinolin-4-yl-pyridine-2-carboxylic acid (3-amino-3,4,5,6-tetrahydro-2H-[1,4′]bipyridinyl-3′-yl)-amide], for which the IC50 at Pim1 kinase (setting [1]), on Pim2 kinase and on Pim3 kinase was below 1 µM each time.

Regarding `Nc1ccc(-c2cccc[n+]2[O-])nc1C(=O)Nc1cnccc1N1CCC[C@H](N)C1` [Example 693, 5-Amino-1′-oxy-[2,2′]bi-pyridinyl-6-carboxylic acid (3-amino-3,4,5,6-tetrahydro-2H-[1,4′]bipyridinyl-3′-yl)-amide], the IC50 at Pim1 kinase (setting [1]), at Pim2 kinase and at Pim3 kinase was below 1 µM throughout.

Take `COc1nccnc1-c1ccc(N)c(C(=O)Nc2cnccc2N2CCC[C@H](N)C2)n1` [Example 694, 3-Amino-6-(3-methoxy-pyrazin-2-yl)-pyridine-2-carboxylic acid (3-amino-3,4,5,6-tetrahydro-2H-[1,4′]bipyridinyl-3′-yl)-amide]: the IC50 on Pim1 kinase (setting [1]), at Pim2 kinase and on Pim3 kinase was below 1 µM in each case.

For `Nc1ccc(-c2cccc(OCc3ccccc3)n2)nc1C(=O)Nc1cnccc1N1CCC[C@H](N)C1` [Example 695, 5-Amino-6′-benzyloxy-[2,2′]bi-pyridinyl-6-carboxylic acid (3-amino-3,4,5,6-tetrahydro-2H-[1,4′]bipyridinyl-3′-yl)-amide], the IC50 at Pim1 kinase (setting [1]), at Pim2 kinase and on Pim3 kinase was below 1 µM in each case.

In the case of `COc1ccc(-c2ccc(N)c(C(=O)Nc3cnccc3N3CCC[C@H](N)C3)n2)nc1` [Example 696, 5-Amino-5′-methoxy-[2,2′]bi-pyridinyl-6-carboxylic acid (3-amino-3,4,5,6-tetrahydro-2H-[1,4′]bipyridinyl-3′-yl)-amide], the IC50 at Pim1 kinase (setting [1]), on Pim2 kinase and at Pim3 kinase was below 1 µM each time.

`COc1cccnc1-c1ccc(N)c(C(=O)Nc2cnccc2N2CCC[C@H](N)C2)n1` [Example 697, 5-Amino-3′-methoxy-[2,2′]bi-pyridinyl-6-carboxylic acid (3-amino-3,4,5,6-tetrahydro-2H-[1,4′]bipyridinyl-3′-yl)-amide]: the IC50 at Pim1 kinase (setting [1]) was below 1 µM; at Pim2 kinase it was 1 to 10 µM; on Pim3 kinase, below 1 µM.

For `CS(=O)(=O)c1ccc(-c2ccc(N)c(C(=O)Nc3cnccc3N3CCC[C@H](N)C3)n2)nc1` [Example 698, 5-Amino-5′-methanesulfonyl-[2,2′]bipyridinyl-6-carboxylic acid (3-amino-3,4,5,6-tetra-hydro-2H-[1,4′]bipyridinyl-3′-yl)-amide], the half-maximal inhibitory concentration (IC50) on Pim1 kinase (setting [1]), at Pim2 kinase and on Pim3 kinase was below 1 µM in each case.

As to `CSc1ccc(-c2ccc(N)c(C(=O)Nc3cnccc3N3CCC[C@H](N)C3)n2)nc1` [Example 699, 5-Amino-5′-methylsulfanyl-[2,2′]bipyridinyl-6-carboxylic acid (3-amino-3,4,5,6-tetra-hydro-2H-[1,4′]bipyridinyl-3′-yl)-amide], the IC50 at Pim1 kinase (setting [1]), at Pim2 kinase and on Pim3 kinase was below 1 µM throughout.

In the case of `Nc1ccc(-c2ncc(Cl)cc2Cl)nc1C(=O)Nc1cnccc1N1CCC[C@H](N)C1` [Example 700, 5-Amino-3′,5′-dichloro-[2,2′]bi-pyridinyl-6-carboxylic acid (3-amino-3,4,5,6-tetrahydro-2H-[1,4′]bipyridinyl-3′-yl)-amide], the IC50 on Pim1 kinase (setting [1]), on Pim2 kinase and on Pim3 kinase was below 1 µM in each case.

For the molecule `Cc1cc(Cl)cnc1-c1ccc(N)c(C(=O)Nc2cnccc2N2CCC[C@H](N)C2)n1` [Example 701, 5-Amino-5′-chloro-3′-methyl-[2,2′]bipyridinyl-6-carboxylic acid (3-amino-3,4,5,6-tetra-hydro-2H-[1,4′]bipyridinyl-3′-yl)-amide], the IC50 on Pim1 kinase (setting [1]), on Pim2 kinase and at Pim3 kinase was below 1 µM in each case.

Take `Nc1ccc(-c2cccc(-n3cccn3)n2)nc1C(=O)Nc1cnccc1N1CCC[C@H](N)C1` [Example 703, 5-Amino-6′-pyrazol-1-yl-[2,2′]bipyridinyl-6-carboxylic acid (3-amino-3,4,5,6-tetra-hydro-2H-[1,4′]bipyridinyl-3′-yl)-amide]: the IC50 on Pim1 kinase (setting [1]), at Pim2 kinase and at Pim3 kinase was below 1 µM throughout.

For the molecule `NC(=O)c1ccnc(-c2ccc(N)c(C(=O)Nc3cnccc3N3CCC[C@H](N)C3)n2)c1` [Example 704, 5′-Amino-[2,2′]bipyridinyl-4,6′-dicarboxylic acid 4-amide 6′-[(3-amino-3,4,5,6-tetrahydro-2H-[1,4′]bipyridinyl-3′-yl)-amide]], the 50% inhibitory concentration (IC50) at Pim1 kinase (setting [1]), at Pim2 kinase and on Pim3 kinase was below 1 µM in each case.
